In US20260198493A1, “HYDRAZIDE COMPOUND AND AGRICULTURAL/HORTICULTURAL FUNGICIDE” (Nippon Soda Co., Ltd., priority 2022, published 2026):

Tests used:
Colletotrichum acutatum = test: Fungicidal effect test against fungi causing apple anthracnose; conditions: 96 h, read-out: growth inhibition ratio
Botrytis cinerea [1] = format: cell-based; conditions: 120 h, 25 ppm by volume, Vogel medium, 20° C., five days, dark, read-out: growth inhibition ratio
[2] = tested on: Erysiphe graminis f.sp.tritici; test: Control test of wheat powdery mildew disease (sprayed young wheat seedlings); format: in vivo; conditions: Blumeria graminis, 144 h, 125 ppm by mass spray, six days after inoculation
Source text: [formula] […] Then, the drug liquid was sprayed onto young wheat seedlings cultivated in a nursery pot (variety “Chihoku”, one-to two-leaf stage), and then air-dried. Thereafter, conidiospores of fungi causing wheat powdery mildew disease (Erysiphe graminis f.sp.tritici) were sprinkled on the young wheat seedlings to inoculate them (treated area). As a control, the conidiospores of fungi causing wheat powdery mildew disease (Erysiphe graminis f.sp.tritici) were sprinkled on young wheat seedlings unsprayed with the drug liquid (untreated area). They were left still in a greenhouse at 20° C. Six days after inoculation, leaves of young wheat seedlings were visually observed, and the lesion area ratio was determined to calculate the control value in a similar manner to the previous test.

Glomerella cingulata = test: Fungicidal effect test against fungi causing grape ripe rot disease; conditions: Colletotrichum gloeosporioides, 72 h, read-out: growth inhibition ratio
Venturia inaequalis = test: Control test of apple scab disease (sprayed young apple seedlings); format: in vivo; conditions: 125 ppm by mass spray, 12 to 14 days after inoculation
Procedure: [formula] […] Then, the drug liquid was sprayed onto young apple seedlings cultivated in a nursery pot (variety “Orin”, three-to four-leaf stage), and then air-dried. Thereafter, conidiospores of fungi causing apple scab disease (Venturia inaequalis) were inoculated thereon (treated area). As a control, the conidiospores were inoculated in a similar manner to the above on young apple seedlings unsprayed with the drug liquid (untreated area). They were left still at 20° C. in a moist room with light and dark cycles repeated every 12 hours. 12 Days to 14 days after inoculation, leaves of young apple seedlings were visually observed, and the control value was calculated from the lesion area ratio in accordance with the equation used in the control test of cucumber gray mold.

Botrytis cinerea [3] = test: Control test of cucumber gray mold (sprayed young cucumber seedlings); format: in vivo; conditions: 96 h, four days after inoculation; for pest or weed control at 25 ppm: 25 ppm by mass spray; for pest or weed control at 125 ppm: 125 ppm by mass spray
Procedure: Then, the drug liquid was sprayed onto young cucumber seedlings cultivated in a nursery pot (variety “Jihai”-based, cotyledon stage), and then air-dried. […] They were left still in a moist room at 20° C. Four days after inoculation, leaves of the young cucumber seedlings were visually observed, and the control value was calculated from the lesion area ratio in accordance with the following equation. [formula]

COC(=O)N(Cc1ccc(C)cc1C)NC(=O)c1cc(C)nnc1Oc1cccc(OC)c1F [b-52]
≥ 75%: inhibition of growth at 25 ppm (Colletotrichum acutatum) | inhibition of growth at 25 ppm (Botrytis cinerea [1]) | pest or weed control at 125 ppm [2] | inhibition of growth at 25 ppm (Glomerella cingulata) | pest or weed control at 125 ppm (Venturia inaequalis) | pest or weed control at 25 ppm (Botrytis cinerea [3]) | pest or weed control at 125 ppm (Botrytis cinerea [3])

COC(=O)N(Cc1ccc(Cl)cc1Cl)NC(=O)c1cc(C)nnc1Oc1cccc(C2CC2)c1F [b-57]
≥ 75%: inhibition of growth at 25 ppm (Colletotrichum acutatum) | inhibition of growth at 25 ppm (Botrytis cinerea [1]) | pest or weed control at 125 ppm [2] | inhibition of growth at 25 ppm (Glomerella cingulata) | pest or weed control at 125 ppm (Venturia inaequalis) | pest or weed control at 125 ppm (Botrytis cinerea [3])

CC(=S)N(Cc1ccc(C)cc1C)NC(=O)c1cc(C)nnc1Oc1cccc(C2CC2)c1F [b-66, 3-(3-Cyclopropyl-2-fluorophenoxy)-N′-(2,4-dimethylbenzyl)-N′-ethanethioyl-6-methylpyridazine-4-carbohydrazide]
≥ 75%: inhibition of growth at 25 ppm (Colletotrichum acutatum) | inhibition of growth at 25 ppm (Botrytis cinerea [1]) | pest or weed control at 125 ppm [2] | inhibition of growth at 25 ppm (Glomerella cingulata) | pest or weed control at 125 ppm (Venturia inaequalis) | pest or weed control at 25 ppm (Botrytis cinerea [3]) | pest or weed control at 125 ppm (Botrytis cinerea [3])

COC(=O)N(Cc1ccc(C)cc1C)NC(=O)c1cc(C)nnc1Oc1cccc(Br)c1Cl [b-68]
≥ 75%: inhibition of growth at 25 ppm (Colletotrichum acutatum) | inhibition of growth at 25 ppm (Botrytis cinerea [1]) | pest or weed control at 125 ppm [2] | inhibition of growth at 25 ppm (Glomerella cingulata) | pest or weed control at 125 ppm (Venturia inaequalis) | pest or weed control at 125 ppm (Botrytis cinerea [3])

COC(=O)N(Cc1ccc(C)cc1C)NC(=O)c1cc(Cl)nnc1Oc1ccc2c(c1)OCO2 [b-81]
≥ 75%: inhibition of growth at 25 ppm (Colletotrichum acutatum) | inhibition of growth at 25 ppm (Botrytis cinerea [1]) | pest or weed control at 125 ppm [2] | inhibition of growth at 25 ppm (Glomerella cingulata) | pest or weed control at 125 ppm (Venturia inaequalis) | pest or weed control at 125 ppm (Botrytis cinerea [3])

COC(=O)N(Cc1ccc(OC)cc1OC)NC(=O)c1cc(C)nnc1Oc1cccc(C2CC2)c1F [b-83]
≥ 75%: inhibition of growth at 25 ppm (Colletotrichum acutatum) | inhibition of growth at 25 ppm (Botrytis cinerea [1]) | pest or weed control at 125 ppm [2] | inhibition of growth at 25 ppm (Glomerella cingulata) | pest or weed control at 125 ppm (Venturia inaequalis) | pest or weed control at 125 ppm (Botrytis cinerea [3])

COC(=O)N(Cc1ccc(C)cc1C)NC(=O)c1c(Oc2cccc(Br)c2F)nnc2c1CCC2 [b-92, Methyl 2-(3-(3-bromo-2-fluorophenoxy)-6,7-dihydro-5H-cyclopenta[c]pyridazine-4-carbonyl)-1-(2,4-dimethylbenzyl)hydrazine-1-carboxylate]
≥ 75%: inhibition of growth at 25 ppm (Colletotrichum acutatum) | inhibition of growth at 25 ppm (Botrytis cinerea [1]) | pest or weed control at 125 ppm [2] | inhibition of growth at 25 ppm (Glomerella cingulata) | pest or weed control at 125 ppm (Venturia inaequalis) | pest or weed control at 25 ppm (Botrytis cinerea [3]) | pest or weed control at 125 ppm (Botrytis cinerea [3])

COC(=O)N(Cc1ccc(C)cc1C)NC(=O)c1cc(C)nnc1Oc1cncc(Br)c1 [b-96]
≥ 75%: inhibition of growth at 25 ppm (Colletotrichum acutatum) | inhibition of growth at 25 ppm (Botrytis cinerea [1]) | pest or weed control at 125 ppm [2] | inhibition of growth at 25 ppm (Glomerella cingulata) | pest or weed control at 125 ppm (Venturia inaequalis) | pest or weed control at 125 ppm (Botrytis cinerea [3])

COC(=O)N(Cc1ccc(C)cc1)NC(=O)c1cc(C)nnc1Oc1cccc(C2CC2)c1F [b-101]
≥ 75%: inhibition of growth at 25 ppm (Colletotrichum acutatum) | inhibition of growth at 25 ppm (Botrytis cinerea [1]) | pest or weed control at 125 ppm [2] | inhibition of growth at 25 ppm (Glomerella cingulata) | pest or weed control at 125 ppm (Venturia inaequalis) | pest or weed control at 25 ppm (Botrytis cinerea [3]) | pest or weed control at 125 ppm (Botrytis cinerea [3])

COC(=O)N(Cc1ccccc1C)NC(=O)c1cc(C)nnc1Oc1cccc(C2CC2)c1F [b-103]
≥ 75%: inhibition of growth at 25 ppm (Colletotrichum acutatum) | inhibition of growth at 25 ppm (Botrytis cinerea [1]) | pest or weed control at 125 ppm [2] | inhibition of growth at 25 ppm (Glomerella cingulata) | pest or weed control at 125 ppm (Venturia inaequalis) | pest or weed control at 25 ppm (Botrytis cinerea [3]) | pest or weed control at 125 ppm (Botrytis cinerea [3])

COC(=O)N(Cc1ccc(C(F)(F)F)cc1C)NC(=O)c1cc(C)nnc1Oc1cccc(C2CC2)c1F [b-109]
≥ 75%: inhibition of growth at 25 ppm (Colletotrichum acutatum) | inhibition of growth at 25 ppm (Botrytis cinerea [1]) | pest or weed control at 125 ppm [2] | inhibition of growth at 25 ppm (Glomerella cingulata) | pest or weed control at 125 ppm (Venturia inaequalis) | pest or weed control at 25 ppm (Botrytis cinerea [3]) | pest or weed control at 125 ppm (Botrytis cinerea [3])

COC(=O)N(Cc1ccc(C)cc1C)NC(=O)c1cc(C)nnc1Oc1cccc(I)c1 [b-114]
≥ 75%: inhibition of growth at 25 ppm (Colletotrichum acutatum) | inhibition of growth at 25 ppm (Botrytis cinerea [1]) | pest or weed control at 125 ppm [2] | inhibition of growth at 25 ppm (Glomerella cingulata) | pest or weed control at 125 ppm (Venturia inaequalis) | pest or weed control at 125 ppm (Botrytis cinerea [3])

COC(=O)N(Cc1ccc(F)cc1C)NC(=O)c1cc(C)nnc1Oc1cccc(C2CC2)c1F [b-121]
≥ 75%: inhibition of growth at 25 ppm (Colletotrichum acutatum) | inhibition of growth at 25 ppm (Botrytis cinerea [1]) | pest or weed control at 125 ppm [2] | inhibition of growth at 25 ppm (Glomerella cingulata) | pest or weed control at 125 ppm (Venturia inaequalis) | pest or weed control at 25 ppm (Botrytis cinerea [3]) | pest or weed control at 125 ppm (Botrytis cinerea [3])

COC(=O)N(Cc1ccc(OC)cc1C)NC(=O)c1ccncc1Oc1cccc(C2CC2)c1F [b-151]
≥ 75%: inhibition of growth at 25 ppm (Colletotrichum acutatum) | inhibition of growth at 25 ppm (Botrytis cinerea [1]) | pest or weed control at 125 ppm [2] | inhibition of growth at 25 ppm (Glomerella cingulata) | pest or weed control at 125 ppm (Venturia inaequalis) | pest or weed control at 25 ppm (Botrytis cinerea [3]) | pest or weed control at 125 ppm (Botrytis cinerea [3])

COC(=O)N(Cc1ccc(OC(F)(F)F)cc1C)NC(=O)c1cc(C)nnc1Oc1cccc(C2CC2)c1F [b-158]
≥ 75%: inhibition of growth at 25 ppm (Colletotrichum acutatum) | inhibition of growth at 25 ppm (Botrytis cinerea [1]) | pest or weed control at 125 ppm [2] | inhibition of growth at 25 ppm (Glomerella cingulata) | pest or weed control at 125 ppm (Venturia inaequalis) | pest or weed control at 25 ppm (Botrytis cinerea [3]) | pest or weed control at 125 ppm (Botrytis cinerea [3])

COC(=O)N(Cc1cccc(C)c1)NC(=O)c1cc(C)nnc1Oc1cccc(C2CC2)c1F [b-159]
≥ 75%: inhibition of growth at 25 ppm (Colletotrichum acutatum) | inhibition of growth at 25 ppm (Botrytis cinerea [1]) | pest or weed control at 125 ppm [2] | inhibition of growth at 25 ppm (Glomerella cingulata) | pest or weed control at 125 ppm (Venturia inaequalis) | pest or weed control at 25 ppm (Botrytis cinerea [3]) | pest or weed control at 125 ppm (Botrytis cinerea [3])

COC(=O)N(Cc1ccc(C2CC2)cc1)NC(=O)c1cc(C)nnc1Oc1cccc(C2CC2)c1F [b-163]
≥ 75%: inhibition of growth at 25 ppm (Colletotrichum acutatum) | inhibition of growth at 25 ppm (Botrytis cinerea [1]) | pest or weed control at 125 ppm [2] | inhibition of growth at 25 ppm (Glomerella cingulata) | pest or weed control at 125 ppm (Venturia inaequalis) | pest or weed control at 25 ppm (Botrytis cinerea [3]) | pest or weed control at 125 ppm (Botrytis cinerea [3])

Cc1ccc(CN(NC(=O)c2cc(C)nnc2Oc2cccc(C3CC3)c2F)C(=O)OCc2ccccc2)c(C)c1 [b-182]
≥ 75%: inhibition of growth at 25 ppm (Colletotrichum acutatum) | inhibition of growth at 25 ppm (Botrytis cinerea [1]) | pest or weed control at 125 ppm [2] | inhibition of growth at 25 ppm (Glomerella cingulata) | pest or weed control at 125 ppm (Venturia inaequalis) | pest or weed control at 25 ppm (Botrytis cinerea [3]) | pest or weed control at 125 ppm (Botrytis cinerea [3])

Cc1ccc(CN(NC(=O)c2cc(C)nnc2Oc2cccc(C3CC3)c2F)C(=O)OCC2CC2)c(C)c1 [b-183]
≥ 75%: inhibition of growth at 25 ppm (Colletotrichum acutatum) | inhibition of growth at 25 ppm (Botrytis cinerea [1]) | pest or weed control at 125 ppm [2] | inhibition of growth at 25 ppm (Glomerella cingulata) | pest or weed control at 125 ppm (Venturia inaequalis) | pest or weed control at 25 ppm (Botrytis cinerea [3]) | pest or weed control at 125 ppm (Botrytis cinerea [3])
